Assays:
TNF = experiment: Cytokine Induction in Human Cells: tumor necrosis factor (TNF) secreted by PBMCs, ELISA; format: cell-based; conditions: 18 to 24 hours
Outline: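 Human donor PBMCs at 1.5-2×10^6 cells/mL in RPMI with 10% FBS were exposed to compound, generally at 0.1 to 100 μM (≤1% DMSO final), for 18 to 24 h at 37 °C. Secreted TNF in supernatant was measured by ELISA and reported as pg/mL.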

IFN = experiment: Cytokine Induction in Human Cells: interferon (IFN) secreted by PBMCs, A549/encephalomyocarditis bioassay; format: cell-based; conditions: 18 to 24 hours
Outline: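 Human PBMCs from healthy donors at 1.5-2×10^6 cells/mL in RPMI with 10% FBS, exposed to compounds (typically 0.1 to 100 μM, ≤1% DMSO) for 18 to 24 h at 37° C. Secreted IFN measured by A549/encephalomyocarditis virus cytopathic-effect bioassay, in alpha reference units/mL against NIH human leukocyte IFN standard.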
Further: call rule not given here.

SMILES	TNF induction (TNF; Dose Concentration 0.1 μM)	TNF induction (TNF; Dose Concentration 1.0 μM)	TNF induction (TNF; Dose Concentration 10.0 μM)	TNF induction (TNF; Dose Concentration 100.0 μM)	IFN induction (IFN; Dose Concentration 0.1 μM)	IFN induction (IFN; Dose Concentration 1.0 μM)	IFN induction (IFN; Dose Concentration 10.0 μM)	IFN induction (IFN; Dose Concentration 100.0 μM)
CCCCc1nc2c(N)nc3cccnc3c2n1CCCCNC(=O)CC1CCCC1 [Example 160]	−	+	+	−	+	+	+	−
CCCCc1nc2c(N)nc3cccnc3c2n1CCCCNC(=O)c1cc(C(F)(F)F)cc(C(F)(F)F)c1 [Example 161]	−	−	+	+	±	+	+	+
CCCCc1nc2c(N)nc3cccnc3c2n1CCCCNC(=O)c1cc(OC)c(OC)c(OC)c1 [Example 162]	−	+	+	+	+	+	+	+
CCCCc1nc2c(N)nc3cccnc3c2n1CCCCNC(=O)c1c(F)c(F)c(F)c(F)c1F [Example 163]	−	+	+	−	+	+	+	+
CCCCc1nc2c(N)nc3cccnc3c2n1CCCCNC(=O)c1ccc(F)cc1 [Example 166]	−	+	+	−	−	+	+	−
CCCCc1nc2c(N)nc3cccnc3c2n1CCCCNC(=O)CC(C)(C)C [Example 172]	−	+	+	+	+	+	+	+
CCCCc1nc2c(N)nc3cccnc3c2n1CCCCNC(=O)C1CC1 [Example 173]	−	+	+	+	+	+	+	+
CCCCc1nc2c(N)nc3cccnc3c2n1CCCCNC(=O)C1CCCC1 [Example 174]	+	+	+	−	+	+	+	+
CCCCc1nc2c(N)nc3cccnc3c2n1CCCCNC(=O)CCC1CCCC1 [Example 175]	−	+	+	−	−	+	+	−
CCCCc1nc2c(N)nc3cccnc3c2n1CCCCNC(=O)c1ccc(C#N)cc1 [Example 176]	−	−	+	+	−	+	+	+
CCCCc1nc2c(N)nc3cccnc3c2n1CCCCNC(=O)c1c(C)cc(C)cc1C [Example 180]	±	+	+	+	+	+	+	+
CCCCc1nc2c(N)nc3cccnc3c2n1CCCCNC(=O)CCCCC(=O)OC [Example 182]	−	+	+	−	−	+	+	+
CCCCc1nc2c(N)nc3cccnc3c2n1CCCCNC(=O)c1cccnc1Cl [Example 183]	− and +	− and +	− and +	−	−	−	−	−
CCCCc1nc2c(N)nc3cccnc3c2n1CCCCNC(=O)Cc1ccc(OC)cc1 [Example 187]	−	+	+	−	−	+	+	+
CCCCc1nc2c(N)nc3cccnc3c2n1CCCCNC(=O)c1ccccc1OC [Example 188]	−	+	+	−	+	+	+	−
CCCCCCCOc1ccc(C(=O)NCCCCn2c(CCCC)nc3c(N)nc4cccnc4c32)cc1 [Example 190]	−	+	+	−	+	+	+	−
CCCCc1nc2c(N)nc3cccnc3c2n1CCNC(=O)Cc1ccsc1 [Example 191]		−	+	+		+	+	+
CCCCc1nc2c(N)nc3cccnc3c2n1CCNC(=O)CCCc1ccc([N+](=O)[O-])cc1 [Example 195]	−	+	+	+	−	−	+	−
CCCCc1nc2c(N)nc3cccnc3c2n1CCNC(=O)Cc1ccc(SC)cc1 [Example 197]	−	+	+	+	−	−	+	+
CCCCc1nc2c(N)nc3cccnc3c2n1CCNC(=O)C1C2CC3C(C2=O)C31 (stereo not drawn) [Example 198]	−	+	+	+	−	−	+	+
CCCCc1nc2c(N)nc3cccnc3c2n1CCNC(=O)CCC(F)(F)F [Example 199]	−	−	+	+	+	−	+	+
CCCCCCCCCCCC(=O)NCCn1c(CCCC)nc2c(N)nc3cccnc3c21 [Example 201]	−	−	−	+	−	−	−	−
